Laboratory results from the NIST ThermoML archive (doi:10.1016/j.tca.2012.08.009).
± gives the expanded uncertainty stated by the source.

Assays:
[1] = 298.15 K, 101 kPa, Liquid; for viscosity: Capillary tube (Ostwald / Ubbelohde) method; for speed of sound: Linear variable-path acoustic interferometer; for mass density: Vibrating tube method
[2] = refractive index (Na D-line) (dimensionless); settings: 298.15 K; 101.33 kPa; Liquid; Standard Abbe refractometry
[3] = refractive index (Na D-line) (dimensionless); wn = mass fraction of the nth substance listed; settings: 298.15 K, 101 kPa, Liquid, Standard Abbe refractometry
[4] = wn = mass fraction of the nth substance listed; settings: 298.15 K, 101 kPa, Liquid; for viscosity: Capillary tube (Ostwald / Ubbelohde) method; for speed of sound: Linear variable-path acoustic interferometer; for mass density: Vibrating tube method
[5] = cn = amount concentration of the nth substance listed, in mol/dm3; settings: 298.15 K, 101 kPa, Liquid; for molar conductivity: Alternating current cell with electrodes; for viscosity: Capillary tube (Ostwald / Ubbelohde) method; for speed of sound: Linear variable-path acoustic interferometer; for mass density: Vibrating tube method
[6] = refractive index (Na D-line) (dimensionless); cn = amount concentration of the nth substance listed, in mol/dm3; settings: 298.15 K, 101 kPa, Liquid, Standard Abbe refractometry

C1COCO1 [1,3-dioxolane]
Settings	mass density [kg/m3]	refractive index	speed of sound [m/s]	viscosity [mPa·s]
[1]	1058.72 ± 0.96	–	1338.9 ± 2.5	0.597 ± 0.009
[2]	–	1.3974 ± 0.0006	–	–

C1COCO1 [1,3-dioxolane] + CC#N
Settings	mass density, [4] [kg/m3]	refractive index, [3]	speed of sound, [4] [m/s]	viscosity, [4] [mPa·s]
w2 = 0	1058.72 ± 0.96	1.3974 ± 0.0006	1338.9 ± 2.5	0.597 ± 0.009
w2 = 0.25	979.95 ± 0.82	1.3835 ± 0.0006	1324.6 ± 2.5	0.533 ± 0.009
w2 = 0.5	909.57 ± 0.75	1.3696 ± 0.0006	1310.2 ± 2.4	0.471 ± 0.008
w2 = 0.75	841.47 ± 0.67	1.3557 ± 0.0006	1295.8 ± 2.4	0.407 ± 0.008

CC#N [acetonitrile]
Settings	mass density [kg/m3]	refractive index	speed of sound [m/s]	viscosity [mPa·s]
[1]	776.74 ± 0.61	–	1281.5 ± 2.4	0.343 ± 0.007
[2]	–	1.3418 ± 0.0006	–	–

CC#N [acetonitrile] + C1COCO1
w1 = 1
Settings	mass density [kg/m3]	refractive index	speed of sound [m/s]	viscosity [mPa·s]
[3]	–	1.3418 ± 0.0006	–	–
[4]	776.74 ± 0.61	–	1281.5 ± 2.4	0.343 ± 0.007

[Br-].[Li+] [lithium bromide] + C1COCO1
Settings	mass density [kg/m3]	molar conductivity [S·m2/mol]	refractive index	speed of sound [m/s]	viscosity [mPa·s]
[5], c1 = 2.686e-05	–	0.002392 ± 1.4e-05	–	–	–
[5], c1 = 3.525e-05	–	0.002226 ± 1.3e-05	–	–	–
[5], c1 = 4.178e-05	–	0.002164 ± 1.3e-05	–	–	–
[5], c1 = 4.7e-05	–	0.002136 ± 1.3e-05	–	–	–
[5], c1 = 5.127e-05	–	0.002128 ± 1.3e-05	–	–	–
[5], c1 = 5.483e-05	–	0.002127 ± 1.3e-05	–	–	–
[5], c1 = 5.868e-05	–	0.002129 ± 1.3e-05	–	–	–
[5], c1 = 6.267e-05	–	0.002145 ± 1.3e-05	–	–	–
[5], c1 = 6.635e-05	–	0.002167 ± 1.3e-05	–	–	–
[5], c1 = 7.115e-05	–	0.002199 ± 1.3e-05	–	–	–
[5], c1 = 7.52e-05	–	0.002233 ± 1.3e-05	–	–	–
[5], c1 = 7.917e-05	–	0.002272 ± 1.4e-05	–	–	–
[5], c1 = 0.0142	1058.79 ± 0.68	–	–	1347.4 ± 2.2	0.599 ± 0.009
[5], c1 = 0.0284	1059 ± 0.68	–	–	1366.8 ± 2.2	0.603 ± 0.009
[5], c1 = 0.0426	1059.29 ± 0.68	–	–	1394.6 ± 2.3	0.607 ± 0.009
[5], c1 = 0.0569	1059.65 ± 0.68	–	–	1430.9 ± 2.3	0.612 ± 0.009
[5], c1 = 0.0712	1060.05 ± 0.68	–	–	1475.6 ± 2.4	0.617 ± 0.009
[5], c1 = 0.0855	1060.52 ± 0.68	–	–	1531.8 ± 2.4	0.622 ± 0.009
[6], c1 = 0.0142	–	–	1.3984 ± 0.0006	–	–
[6], c1 = 0.0284	–	–	1.3993 ± 0.0006	–	–
[6], c1 = 0.0426	–	–	1.4001 ± 0.0006	–	–
[6], c1 = 0.0569	–	–	1.4008 ± 0.0006	–	–
[6], c1 = 0.0712	–	–	1.4014 ± 0.0006	–	–
[6], c1 = 0.0855	–	–	1.402 ± 0.0006	–	–

[Cl-].[Li+] [lithium chloride] + C1COCO1
Settings	mass density [kg/m3]	molar conductivity [S·m2/mol]	refractive index	speed of sound [m/s]	viscosity [mPa·s]
[5], c1 = 3.525e-05	–	0.003047 ± 1.8e-05	–	–	–
[5], c1 = 3.871e-05	–	0.002972 ± 1.8e-05	–	–	–
[5], c1 = 4.453e-05	–	0.002875 ± 1.7e-05	–	–	–
[5], c1 = 4.924e-05	–	0.002803 ± 1.7e-05	–	–	–
[5], c1 = 5.609e-05	–	0.00273 ± 1.6e-05	–	–	–
[5], c1 = 6.159e-05	–	0.002693 ± 1.6e-05	–	–	–
[5], c1 = 6.635e-05	–	0.002673 ± 1.6e-05	–	–	–
[5], c1 = 7.162e-05	–	0.002663 ± 1.6e-05	–	–	–
[5], c1 = 7.442e-05	–	0.002672 ± 1.6e-05	–	–	–
[5], c1 = 7.691e-05	–	0.002715 ± 1.6e-05	–	–	–
[5], c1 = 7.721e-05	–	0.002746 ± 1.6e-05	–	–	–
[5], c1 = 7.779e-05	–	0.002778 ± 1.7e-05	–	–	–
[5], c1 = 0.0142	1058.75 ± 0.68	–	–	1344.6 ± 2.2	0.597 ± 0.009
[5], c1 = 0.0284	1058.9 ± 0.68	–	–	1356.8 ± 2.2	0.598 ± 0.009
[5], c1 = 0.0426	1059.11 ± 0.68	–	–	1373.9 ± 2.2	0.601 ± 0.009
[5], c1 = 0.0568	1059.4 ± 0.68	–	–	1394.7 ± 2.2	0.603 ± 0.009
[5], c1 = 0.071	1059.75 ± 0.68	–	–	1420.8 ± 2.3	0.606 ± 0.009
[5], c1 = 0.0852	1060.14 ± 0.68	–	–	1451.4 ± 2.3	0.608 ± 0.009
[6], c1 = 0.0142	–	–	1.398 ± 0.0006	–	–
[6], c1 = 0.0284	–	–	1.3988 ± 0.0006	–	–
[6], c1 = 0.0426	–	–	1.3994 ± 0.0006	–	–
[6], c1 = 0.0568	–	–	1.4 ± 0.0006	–	–
[6], c1 = 0.071	–	–	1.4005 ± 0.0006	–	–
[6], c1 = 0.0852	–	–	1.401 ± 0.0006	–	–

[I-].[Li+] [lithium iodide] + C1COCO1
Settings	mass density [kg/m3]	molar conductivity [S·m2/mol]	refractive index	speed of sound [m/s]	viscosity [mPa·s]
[5], c1 = 8.17e-06	–	0.001792 ± 1.1e-05	–	–	–
[5], c1 = 1.498e-05	–	0.000612 ± 4e-06	–	–	–
[5], c1 = 2.075e-05	–	0.000192 ± 1e-06	–	–	–
[5], c1 = 2.568e-05	–	0.000191 ± 1e-06	–	–	–
[5], c1 = 2.997e-05	–	0.000418 ± 3e-06	–	–	–
[5], c1 = 3.702e-05	–	0.000994 ± 6e-06	–	–	–
[5], c1 = 4.495e-05	–	0.001751 ± 1.1e-05	–	–	–
[5], c1 = 5.081e-05	–	0.00241 ± 1.4e-05	–	–	–
[5], c1 = 5.66e-05	–	0.003074 ± 1.8e-05	–	–	–
[5], c1 = 6.421e-05	–	0.003828 ± 2.3e-05	–	–	–
[5], c1 = 6.958e-05	–	0.004382 ± 2.6e-05	–	–	–
[5], c1 = 7.293e-05	–	0.004735 ± 2.8e-05	–	–	–
[5], c1 = 0.0142	1058.82 ± 0.68	–	–	1350.6 ± 2.2	0.601 ± 0.009
[5], c1 = 0.0284	1059.06 ± 0.68	–	–	1377.7 ± 2.3	0.607 ± 0.009
[5], c1 = 0.0427	1059.4 ± 0.68	–	–	1416.8 ± 2.3	0.614 ± 0.009
[5], c1 = 0.057	1059.82 ± 0.68	–	–	1469.7 ± 2.4	0.621 ± 0.009
[5], c1 = 0.0714	1060.32 ± 0.68	–	–	1539.7 ± 2.6	0.628 ± 0.009
[5], c1 = 0.0858	1060.86 ± 0.68	–	–	1630.2 ± 2.7	0.635 ± 0.009
[6], c1 = 0.0142	–	–	1.3988 ± 0.0006	–	–
[6], c1 = 0.0284	–	–	1.3997 ± 0.0006	–	–
[6], c1 = 0.0427	–	–	1.4004 ± 0.0006	–	–
[6], c1 = 0.057	–	–	1.4011 ± 0.0006	–	–
[6], c1 = 0.0714	–	–	1.4018 ± 0.0006	–	–
[6], c1 = 0.0858	–	–	1.4024 ± 0.0006	–	–
